Patent US20250382322A1, “DIAGNOSTICS FOR DETECTING ECTO-5'-NUCLEOTIDASE (CD73)” (EBERHARD KARLS UNIVERSITÄT TÜBINGEN, priority 2022, published 2025)

Tests used:
[1] = target: T1, recombinant soluble human CD73 (Homo sapiens, UniProt P21589, T376A); assay: CD73 enzyme inhibition assay with [2,8-3H]AMP, soluble human CD73; type: biochemical; conditions: [2,8-3H]AMP (5 μM) as substrate; Ki from IC50 by Cheng-Prusoff; read-out: Human soluble CD73 Ki ± SEM
T1 construct: mature human CD73 (residues 27-549) fused to 6×His-tag at the C-terminus; 6xHis (C); made in house; host or cells: Spodoptera frugiperda Sf9 insect cells (baculovirus, pAcGP67B vector)
T1 sequence (P21589 27-549 T376A): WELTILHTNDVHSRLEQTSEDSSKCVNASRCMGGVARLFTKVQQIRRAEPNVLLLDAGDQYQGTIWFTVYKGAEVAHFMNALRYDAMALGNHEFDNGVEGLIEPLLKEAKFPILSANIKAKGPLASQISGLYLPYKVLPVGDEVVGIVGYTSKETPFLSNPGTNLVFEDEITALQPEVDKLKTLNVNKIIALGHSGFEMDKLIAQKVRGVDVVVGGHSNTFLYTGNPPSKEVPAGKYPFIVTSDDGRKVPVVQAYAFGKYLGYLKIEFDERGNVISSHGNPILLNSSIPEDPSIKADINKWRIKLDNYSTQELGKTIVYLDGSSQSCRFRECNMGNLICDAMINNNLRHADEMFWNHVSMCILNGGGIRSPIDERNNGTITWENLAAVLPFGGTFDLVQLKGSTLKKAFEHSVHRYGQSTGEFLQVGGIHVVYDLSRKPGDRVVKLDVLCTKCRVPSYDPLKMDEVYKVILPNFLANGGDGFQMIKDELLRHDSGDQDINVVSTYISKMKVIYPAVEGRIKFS
Protocol: Compound 2b, its precursor 1, and 20 were investigated for their CD73-inhibitory potency using tritium-labeled AMP as a substrate.^20 After incubation with CD73, non-hydrolyzed substrate and inorganic phosphate were precipitated using a solution of lanthanum chloride, and the precipitate was separated from the solution containing the reaction product [2,8-^3H]adenosine by filtration through GF/B glass fiber filters (WhatmanTM GE Healthcare, Chicago, IL, USA) using a cell harvester (M-48, Brandel, Gaitherburg, MD, USA). The filtrates (ca. 1.8 mL each) were transferred to scintillation vials, scintillation cocktail ULTIMA Gold XR (PerkinElmer, Waltham, MA, USA) was added (5 mL), and the radioactivity esd quantified by scintillation counting. CD73 preparations were (1) recombinant soluble human CD73,^13 (2) recombinant soluble rat CD73,^21 both expressed in Spodoptera frugiperda 9 (Sf) cells, (3) membrane preparations of MDA-MB-231 cells,^16 a human triple-negative breast cancer cell line with high expression of CD73,^18 and (4) membrane preparations of the 4T1.2 cell line, a mouse CD73-expressing breast cancer cell line.^22 The potency of the compounds was determined by measurements of full concentration-inhibition curves. K values were calcuated from the obtained IC50 values employing the Cheng-Prusoff equation.^23
Human soluble CD73 was expressed in Spodoptera frugiperda (Sf9) insect cells and purified as previously described.^16 The cDNA encoding for the mature human CD73 (residues 27-549) fused to 6×His-tag at the C-terminus (Genbank accession no. NM_002526) corresponding to the natural variant T376A (P21589/VAR_022091, UniProtKB/Swiss-Prot) was ligated into the pAcGP67B vector. For transfection, 1 μl of the recombinant vector (1000 ng/μl) mixed with 2.5 μl of baculovirus genomic DNA ProEasy™ (AB vector, CA, USA) was used to transfect Sf9 cells grown in Insect-XPRESS™ medium (#BE12-7300, Lonza, Switzerland) supplemented with 10 mg/l gentamicin. […]

human P2Y12 receptor = target: T2, human P2Y12 receptor (Homo sapiens, UniProt Q9H244); assay: β-arrestin recruitment assay at P2Y12 receptor; type: cell-based; conditions: CHO-PK1 cells; for IC50: 2-methylthio-ADP as agonist at EC80 (3 μM), read-out: Inhibition P2Y12 receptor IC50; for EC50: read-out: Activation P2Y12 receptor EC50
T2 construct: host or cells: CHO-PK1 cells (so in the source)
T2 sequence (Q9H244 whole entry): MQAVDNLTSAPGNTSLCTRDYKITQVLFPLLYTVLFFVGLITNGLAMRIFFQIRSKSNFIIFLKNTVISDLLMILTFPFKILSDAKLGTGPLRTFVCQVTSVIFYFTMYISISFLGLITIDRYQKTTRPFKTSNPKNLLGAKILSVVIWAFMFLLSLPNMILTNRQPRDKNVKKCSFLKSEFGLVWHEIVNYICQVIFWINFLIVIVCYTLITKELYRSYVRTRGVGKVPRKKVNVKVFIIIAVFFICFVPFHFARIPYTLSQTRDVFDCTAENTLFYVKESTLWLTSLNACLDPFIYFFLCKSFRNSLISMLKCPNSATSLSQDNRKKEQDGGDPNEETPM
Source text: The interaction of 2 with the human P2Y12 receptor was investigated in a β-arrestin recruitment assay using the galactosidase complementation technology as previously described.^25-27 The human P2Y12 receptor was expressed in CHO-PK1 cells (Eurofins DiscoverX, Fremont, CA, USA). For results see Table 2 and Table 3.

Compound | Ki [1] | IC50 (human P2Y12 receptor) | EC50 (human P2Y12 receptor)
CCCN(Cc1ccc(-c2cn(CCF)nn2)cc1)c1nc(Cl)nc2c1ncn2[C@@H]1O[C@H](COP(=O)(O)CP(=O)(O)O)C(O)C1O (stereo partly drawn) [Compound 2] | 0.00102 ± 0.00011 µM | > 10 µM | > 10 µM
O=C(NCCCCCCNC(=O)c1ccc2c(c1)C1(OC2=O)c2ccc(O)cc2Oc2cc(O)ccc21)c1ccc(CNc2nc(Cl)nc3c2ncn3[C@@H]2O[C@H](COP(=O)(O)CP(=O)(O)O)[C@@H](O)[C@H]2O)cc1 [Compound 20, (((((2R,3S,4R,5R)-5-(2-chloro-6-((4-((6-(3′,6′-dihydroxy-3-oxo-3H-spiro[isobenzofuran-1,9′-xanthene]-6-carboxamido)-hexyl)carbamoyl)benzyl)amino)-9H-purin-9-yl)-3,4-dihydroxytetrahydrofuran-2-yl)methoxy)(hydroxy)phosphoryl)methyl)phosphonic acid] | 0.00596 ± 0.00085 µM | > 10 µM | > 10 µM
